Measured values from patent US9833497B2, “Human originated EGF domain proteins and use of the same” (CHENGDU SOURCEBIO LIMITED-LIABILITY COMPANY, priority 2013, dated 2017).

Columns and labels:
Format in all cases: cell-based
[1] = test system: E. coli DH5α; test: Antibacterial activity: MIC and growth curve against E. coli DH5α in 96-well plate; conditions: minimal inhibitory concentration against E. coli DH5α; 96-well plate, 5×10^5 CFU/mL, 37° C., judged after 8 h
In short: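 MIC taken as lowest protein level with no bacterial growth, tracked by A600 every 30 min during 37 °C, 175 rpm culture. Two-fold protein series 50-12.5 μg/mL final, triplicate wells, against 5×10^5 CFU/mL of LB-washed mid-log cells.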

[2] = test system: Pseudomonas aeruginosa; test: MIC against Gram-negative bacteria: Pseudomonas aeruginosa; conditions: for MIC P. aeruginosa / MIC against P. aeruginosa / MIC (μg/mL) P. aeruginosa: 5×10^5 CFU/mL; for MIC against P. aeruginosa: Pseudomonas aeruginosa
In short: (§1)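 MIC, the lowest recombinant protein concentration giving no bacterial growth, found by two-fold serial dilution of human EGF-domain proteins in triplicate. Inoculum 5×10^5 CFU/mL in LB from cultures at McFarland 0.5; plates incubated at 37° C, 175 rpm shaking.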

[3] = test system: Citrobacter diversus; test: MIC against Gram-negative bacteria: Citrobacter diversus; conditions: for MIC C. diversus / MIC against C. diversus / MIC (μg/mL) C. diversus: 5×10^5 CFU/mL; for MIC against C. diversus: Citrobacter diversus
In short: as §1

[4] = test system: Klebsiella pneumonia; test: MIC against Gram-negative bacteria: Klebsiella pneumonia; conditions: for MIC K. pneumonia / MIC against K. pneumonia / MIC (μg/mL) K. pneumonia: 5×10^5 CFU/mL; for MIC against K. pneumonia: Klebsiella pneumonia
In short: as §1

[5] = test system: Aeromonas hydrophila; test: MIC against Gram-negative bacteria: Aeromonas hydrophila; conditions: for MIC A. hydrophila / MIC against A. hydrophila / MIC (μg/mL) A. hydrophila: 5×10^5 CFU/mL; for MIC against A. hydrophila: Aeromonas hydrophila
In short: as §1

[6] = test system: Moraxella catarrhalis; test: MIC against Gram-negative bacteria: Moraxella catarrhalis; conditions: for MIC M. catarrhalis / MIC against M. catarrhalis / MIC (μg/mL) M. catarrhalis: 5×10^5 CFU/mL; for MIC against M. catarrhalis: Moraxella catarrhalis
In short: as §1

[7] = test system: Serratia marcescens; test: MIC against Gram-negative bacteria: Serratia marcescens; conditions: for MIC S. marcescens / MIC against S. marcescens / MIC (μg/mL) S. marcescens: 5×10^5 CFU/mL; for MIC against S. marcescens: Serratia marcescens
In short: as §1

[8] = test system: Proteus mirabilis; test: MIC against Gram-negative bacteria: Proteus mirabilis; conditions: for MIC P. mirabilis / MIC against P. mirabilis / MIC (μg/mL) P. mirabilis: 5×10^5 CFU/mL; for MIC against P. mirabilis: Proteus mirabilis
In short: as §1

[9] = test system: E. coli BL21; test: MIC against Gram-negative bacteria: E. coli BL21; conditions: for MIC E. coli BL21 / MIC against E. coli BL21 / MIC (μg/mL) E. coli BL21: 5×10^5 CFU/mL
In short: as §1

[10] = test system: Proteus vulgaris; test: MIC against Gram-negative bacteria: Proteus vulgaris; conditions: for MIC P. vulgaris / MIC against P. vulgaris / MIC (μg/mL) P. vulgaris: 5×10^5 CFU/mL; for MIC against P. vulgaris: Proteus vulgaris
In short: as §1

[11] = test system: Enterobacter cloacae; test: MIC against Gram-negative bacteria: Enterobacter cloacae; conditions: for MIC E. cloacae / MIC against E. cloacae / MIC (μg/mL) E. cloacae: 5×10^5 CFU/mL; for MIC against E. cloacae: Enterobacter cloacae
In short: as §1

[12] = P. aeruginosa, 10 h cultivation at 37° C.
[13] = C. diversus, 10 h cultivation at 37° C.
[14] = K. pneumonia, 10 h cultivation at 37° C.
[15] = A. hydrophila, 10 h cultivation at 37° C.
[16] = M. catarrhalis, 10 h cultivation at 37° C.
[17] = S. marcescens, 10 h cultivation at 37° C.
[18] = P. mirabilis, 10 h cultivation at 37° C.
[19] = E. coli BL21, 10 h cultivation at 37° C.
[20] = P. vulgaris, 10 h cultivation at 37° C.
[21] = E. cloacae, 10 h cultivation at 37° C.
[22] = E. coli BL21, 96-well plate, 37° C., 10 h
[23] = 10 h cultivation at 37° C., two-fold serial dilution

Substance	MIC [1] [µg/mL]	MIC against P. aeruginosa ([2]; 96-well plate, 37° C., 10 h) [µg/mL]	MIC against C. diversus ([3]; 96-well plate, 37° C., 10 h) [µg/mL]	MIC against K. pneumonia ([4]; 96-well plate, 37° C., 10 h) [µg/mL]	MIC against A. hydrophila ([5]; 96-well plate, 37° C., 10 h) [µg/mL]	MIC against M. catarrhalis ([6]; 96-well plate, 37° C., 10 h) [µg/mL]	MIC against S. marcescens ([7]; 96-well plate, 37° C., 10 h) [µg/mL]	MIC against P. mirabilis ([8]; 96-well plate, 37° C., 10 h) [µg/mL]	MIC against E. coli BL21 [9, 22] [µg/mL]	MIC against P. vulgaris ([10]; 96-well plate, 37° C., 10 h) [µg/mL]	MIC against E. cloacae ([11]; 96-well plate, 37° C., 10 h) [µg/mL]	other results
PRT703 (NCSRLGCQHHCVPTLDGPTCYCNSSFQLQADGKTCK; listed as Homo sapiens)	25	–	–	–	–	–	–	–	–	–	–	MIC P. aeruginosa ([2]; 96-well plate, 37° C., 10 h): 12.5 µg/mL; MIC C. diversus ([3]; 96-well plate, 37° C., 10 h): 12.5 µg/mL; MIC K. pneumonia ([4]; 96-well plate, 37° C., 10 h): 25 µg/mL; MIC A. hydrophila ([5]; 96-well plate, 37° C., 10 h): 25 µg/mL; MIC M. catarrhalis ([6]; 96-well plate, 37° C., 10 h): 50 µg/mL; MIC S. marcescens ([7]; 96-well plate, 37° C., 10 h): 50 µg/mL; MIC P. mirabilis ([8]; 96-well plate, 37° C., 10 h): 25 µg/mL; MIC E. coli BL21 ([9]; 96-well plate, 37° C., 10 h): 50 µg/mL; MIC P. vulgaris ([10]; 96-well plate, 37° C., 10 h): 12.5 µg/mL; MIC E. cloacae ([11]; 96-well plate, 37° C., 10 h): 50 µg/mL
PRT928 (NIDNCDPDPCHHGQCQDGIDSYTCICNPGYMGAICS; listed as Homo sapiens)	25	–	–	–	–	–	–	–	–	–	–	MIC [2, 12]: 25 µg/mL; MIC [3, 13]: 25 µg/mL; MIC [4, 14]: 12.5 µg/mL; MIC [5, 15]: 12.5 µg/mL; MIC [6, 16]: 12.5 µg/mL; MIC [7, 17]: 25 µg/mL; MIC [8, 18]: 12.5 µg/mL; MIC [9, 19]: 12.5 µg/mL; MIC [10, 20]: 25 µg/mL; MIC [11, 21]: 25 µg/mL
PRT1264 (DIDECGNELNGGCVHDCLNIPGNYRCTCFDGFMLAHDGHNCL; listed as Homo sapiens)	12.5	12.5	12.5	25	25	50	12.5	12.5	50	50	12.5	–
PRT1351 (TAVCQSPCLNGGKCVRPNRCHCLSSWTGHNCS; listed as Homo sapiens)	25	–	–	–	–	–	–	–	–	–	–	MIC against P. aeruginosa ([2]; 10 h cultivation at 37° C.): 50 µg/mL; MIC against C. diversus ([3]; 10 h cultivation at 37° C.): 12.5 µg/mL; MIC against K. pneumonia ([4]; 10 h cultivation at 37° C.): 25 µg/mL; MIC against A. hydrophila ([5]; 10 h cultivation at 37° C.): 12.5 µg/mL; MIC against M. catarrhalis ([6]; 10 h cultivation at 37° C.): 25 µg/mL; MIC against S. marcescens ([7]; 10 h cultivation at 37° C.): 12.5 µg/mL; MIC against P. mirabilis ([8]; 10 h cultivation at 37° C.): 12.5 µg/mL; MIC against E. coli BL21 [9, 19]: 25 µg/mL; MIC against P. vulgaris ([10]; 10 h cultivation at 37° C.): 25 µg/mL; MIC against E. cloacae ([11]; 10 h cultivation at 37° C.): 12.5 µg/mL
PRT254 (PCLEGGTCILSPKGASCNCPHPYTGDRCE; listed as Homo sapiens)	25	–	–	–	–	–	–	–	–	–	–	MIC (μg/mL) P. aeruginosa [2, 12]: 12.5 µg/mL; MIC (μg/mL) C. diversus [3, 13]: 12.5 µg/mL; MIC (μg/mL) K. pneumonia [4, 14]: 12.5 µg/mL; MIC (μg/mL) A. hydrophila [5, 15]: 25 µg/mL; MIC (μg/mL) M. catarrhalis [6, 16]: 25 µg/mL; MIC (μg/mL) S. marcescens [7, 17]: 12.5 µg/mL; MIC (μg/mL) P. mirabilis [8, 18]: 12.5 µg/mL; MIC (μg/mL) E. coli BL21 [9, 19]: 12.5 µg/mL; MIC (μg/mL) P. vulgaris [10, 20]: 12.5 µg/mL; MIC (μg/mL) E. cloacae [11, 21]: 12.5 µg/mL
PRT1145 (KINDCTSIPCMNEGFCQKSAHGFTCICPRGYTGAYCE; listed as Homo sapiens)	12.5	–	–	–	–	–	–	–	–	–	–	MIC P. aeruginosa [2, 23]: 12.5 µg/mL; MIC C. diversus [3, 23]: 12.5 µg/mL; MIC K. pneumonia [4, 23]: 12.5 µg/mL; MIC A. hydrophila [5, 23]: 12.5 µg/mL; MIC M. catarrhalis [6, 23]: 12.5 µg/mL; MIC S. marcescens [7, 23]: 12.5 µg/mL; MIC P. mirabilis [8, 23]: 50 µg/mL; MIC E. coli BL21 [9, 23]: 25 µg/mL; MIC P. vulgaris [10, 23]: 25 µg/mL; MIC E. cloacae [11, 23]: 12.5 µg/mL
PRT1450 (VPSNCDCLNGGTCVSNKYFSNIHWCNCPKKFGGQHCE; listed as Homo sapiens)	12.5	–	–	–	–	–	–	–	–	–	–	MIC against P. aeruginosa ([2]; 10 h cultivation at 37° C.): 50 µg/mL; MIC against C. diversus ([3]; 10 h cultivation at 37° C.): 25 µg/mL; MIC against K. pneumonia ([4]; 10 h cultivation at 37° C.): 12.5 µg/mL; MIC against A. hydrophila ([5]; 10 h cultivation at 37° C.): 50 µg/mL; MIC against M. catarrhalis ([6]; 10 h cultivation at 37° C.): 12.5 µg/mL; MIC against S. marcescens ([7]; 10 h cultivation at 37° C.): 25 µg/mL; MIC against P. mirabilis ([8]; 10 h cultivation at 37° C.): 25 µg/mL; MIC against E. coli BL21 [9, 19]: 25 µg/mL; MIC against P. vulgaris ([10]; 10 h cultivation at 37° C.): 12.5 µg/mL; MIC against E. cloacae ([11]; 10 h cultivation at 37° C.): 25 µg/mL
PRT1197 (DIDECAAKMHYCHANTVCVNLPGLYRCDCVPGYIRVDDFSCT; listed as Homo sapiens)	25	25	25	50	50	12.5	25	25	12.5	50	12.5	–
PRT1256 (DVDECQDNNGGCQQICVNAMGSYECQCHSGFFLSDNQ; listed as Homo sapiens)	25	25	12.5	12.5	50	50	25	12.5	12.5	50	25	–
PRT221 (YTECTDGYEWDPDSQHCRDVNECLTIPEACKGEMKCINHYGGYLCL; listed as Homo sapiens)	12.5	–	–	–	–	–	–	–	–	–	–	MIC (μg/mL) P. aeruginosa [2, 12]: 50 µg/mL; MIC (μg/mL) C. diversus [3, 13]: 25 µg/mL; MIC (μg/mL) K. pneumonia [4, 14]: 12.5 µg/mL; MIC (μg/mL) A. hydrophila [5, 15]: 50 µg/mL; MIC (μg/mL) M. catarrhalis [6, 16]: 12.5 µg/mL; MIC (μg/mL) S. marcescens [7, 17]: 12.5 µg/mL; MIC (μg/mL) P. mirabilis [8, 18]: 25 µg/mL; MIC (μg/mL) E. coli BL21 [9, 19]: 50 µg/mL; MIC (μg/mL) P. vulgaris [10, 20]: 50 µg/mL; MIC (μg/mL) E. cloacae [11, 21]: 25 µg/mL
PRT1320 (PSNPCSHPDRGGCSENAECVPGSLGTHHCTCHKGWSGDGRVCV; listed as Homo sapiens)	25	25	12.5	12.5	12.5	12.5	12.5	12.5	12.5	50	25	–
PRT1313 (VADLCQDGHGGCSEHANCSQVGTMVTCTCLPDYEGDGWSCR; listed as Homo sapiens)	12.5	50	50	25	25	12.5	50	50	25	12.5	12.5	–
PRT1205 (EHDECITNQHNCDENALCFNTVGGHNCVCKPGYTGNGTTCK; listed as Homo sapiens)	25	50	12.5	25	50	25	25	50	12.5	12.5	12.5	–
